Laboratory results as given in patent US8772500B2, “TRPV3 modulators” (AbbVie Inc., priority 2011, dated 2014).

Columns and labels:
[1] = In vitro human microsomal stability assay; assay type: in vitro ADME; settings: human, 0.5 h, 0.5 μM, pH 7.4
Method: (§1) Test compounds were evaluated for metabolic stability in an in vitro rat microsomal stability assay using rat (Sprague-Dawley, from BD Biosciences) liver microsomes and/or an in vitro human microsomal stability assay using human (Xenotech) liver microsomes. […] Incubations were carried out at 37° C. with a final incubation volume of 135 μL. […] A 1.5 μL aliquot of reduced nicotine adenine disphosphonucleotide (NADPH) (Chem-Impex Int'L Inc., Lot 12532024) was also added to the time-zero plates.

[2] = In vitro rat microsomal stability assay; assay type: in vitro ADME, rat (Sprague-Dawley); settings: Sprague-Dawley, rat, 0.5 h, 0.5 μM, pH 7.4
Method: as §1

| Structure (SMILES) | HUMAN MICROSOMAL STABILITY (% REMAINING AFTER 30 MINUTES) [1] [%] | RAT MICROSOMAL STABILITY (% REMAINING AFTER 30 MINUTES) [2] [%] |
| --- | --- | --- |
| OC(C1CCCc2cccnc21)C1(c2ccc(F)c(F)c2)CCC1 (stereo not drawn) [Example 170, (syn)-[1-(3,4-difluorophenyl)cyclobutyl][5,6,7,8-tetrahydroquinolin-8-yl]-methanol] | <0.01 | <0.01 |
| OC(C1CCc2cccnc21)C1(c2ccc(F)c(F)c2)CCC1 (stereo not drawn) [Example 171, (anti)-[1-(3,4-difluorophenyl)cyclobutyl][6,7-dihydro-5H-cyclopenta[b]-pyridin-7-yl]methanol] | 2.7 | <0.01 |
| OC(C1CCc2cccnc21)C1(c2ccc(F)c(F)c2)CCC1 (stereo not drawn) [Example 172, (syn)-[1-(3,4-difluorophenyl)cyclobutyl][6,7-dihydro-5H-cyclopenta[b]-pyridin-7-yl]methanol] | 2.4 | <0.01 |
| OC(C1CCc2cccnc21)C1(c2ccc(C(F)(F)F)cc2)CCC1 (stereo not drawn) [Example 173, (anti)-6,7-dihydro-5H-cyclopenta[b]pyridin-7-yl{1-[4-(trifluoromethyl)-phenyl]cyclobutyl}methanol] | 45 | <0.01 |
| OC(C1CCc2cccnc21)C1(c2ccc(C(F)(F)F)cc2)CCC1 (stereo not drawn) [Example 174, (syn)-6,7-dihydro-5H-cyclopenta[b]pyridin-7-yl{1-[4-(trifluoromethyl)-phenyl]cyclobutyl}methanol] | 26 | <0.01 |
| OC(C1CCc2cccnc21)C1(c2ccc(OC(F)(F)F)cc2)CCC1 (stereo not drawn) [Example 175, (anti)-6,7-dihydro-5H-cyclopenta[b]pyridin-7-yl{1-[4-(trifluoromethoxy)-phenyl]cyclobutyl}methanol] | 29 | <0.01 |
| OC(C1CCc2cccnc21)C1(c2ccc(OC(F)(F)F)cc2)CCC1 (stereo not drawn) [Example 176, (syn)-6,7-dihydro-5H-cyclopenta[b]pyridin-7-yl{1-[4-(trifluoromethoxy)-phenyl]cyclobutyl}methanol] | 20 | <0.01 |
| OC(C1CCc2cccnc21)C1(c2cccc(C(F)(F)F)c2)CCC1 (stereo not drawn) [Example 185, (anti)-6,7-dihydro-5H-cyclopenta[b]pyridin-7-yl{1-[3-(trifluoromethyl)-phenyl]cyclobutyl}methanol] | 0.39 | <0.01 |
| OC(C1CCCc2cccnc21)C1(c2cccc(OC(F)(F)F)c2)CCC1 (stereo not drawn) [Example 187, (anti)-5,6,7,8-tetrahydroquinolin-8-yl{1-[3-(trifluoromethoxy)phenyl]-cyclobutyl}methanol] | <0.01 | <0.01 |
| OC(C1CCCc2cccnc21)C1(c2cccc(OC(F)(F)F)c2)CCC1 (stereo not drawn) [Example 188, (syn)-5,6,7,8-tetrahydroquinolin-8-yl{1-[3-(trifluoromethoxy)phenyl]-cyclobutyl}methanol] | 0.16 | <0.01 |
| OC(C1CCc2cccnc21)C1(c2cccc(OC(F)(F)F)c2)CCC1 (stereo not drawn) [Example 189, (anti)-6,7-dihydro-5H-cyclopenta[b]pyridin-7-yl{1-[3-(trifluoromethoxy)-phenyl]cyclobutyl}methanol] | 0.65 | <0.01 |
| OC(C1CCc2cccnc21)C1(c2cccc(OC(F)(F)F)c2)CCC1 (stereo not drawn) [Example 190, (syn)-6,7-dihydro-5H-cyclopenta[b]pyridin-7-yl{1-[3-(trifluoromethoxy)-phenyl]cyclobutyl}methanol] | 3.7 | <0.01 |
| OC(C1CCCc2cccnc21)C1(c2ccccc2OC(F)(F)F)CCC1 (stereo not drawn) [Example 191, (anti)-5,6,7,8-tetrahydroquinolin-8-yl{1-[2-(trifluoromethoxy)phenyl]-cyclobutyl}methanol] | <0.01 | <0.01 |
| OC(C1CCCc2cccnc21)C1(c2ccccc2OC(F)(F)F)CCC1 (stereo not drawn) [Example 192, (syn)-5,6,7,8-tetrahydroquinolin-8-yl{1-[2-(trifluoromethoxy)phenyl]-cyclobutyl}methanol] | <0.01 | <0.01 |
| OC(C1CCc2cccnc21)C1(c2ccccc2OC(F)(F)F)CCC1 (stereo not drawn) [Example 193, (anti)-6,7-dihydro-5H-cyclopenta[b]pyridin-7-yl{1-[2-(trifluoromethoxy)-phenyl]cyclobutyl}methanol] | 0.02 | <0.01 |
| OC(C1CCc2cccnc21)C1(c2ccccc2OC(F)(F)F)CCC1 (stereo not drawn) [Example 194, (syn)-6,7-dihydro-5H-cyclopenta[b]pyridin-7-yl{1-[2-(trifluoromethoxy)-phenyl]cyclobutyl}methanol] | 0.08 | <0.01 |

| Structure (SMILES) | HUMAN MICROSOMAL STABILITY (% REMAINING AFTER 30 MINUTES) [1] [%] | RAT MICROSOMAL STABILITY (% REMAINING AFTER 30 MINUTES) [2] [%] |
| --- | --- | --- |
| OC(C1CCCc2cccnc21)C1(c2ccccc2C(F)(F)F)CCC1 (stereo not drawn) [Example 195, (anti)-5,6,7,8-tetrahydroquinolin-8-yl{1-[2-(trifluoromethyl)phenyl]-cyclobutyl}methanol] | <0.01 | <0.01 |
| OC(C1CCCc2cccnc21)C1(c2ccccc2C(F)(F)F)CCC1 (stereo not drawn) [Example 196, (syn)-5,6,7,8-tetrahydroquinolin-8-yl{1-[2-(trifluoromethyl)phenyl]-cyclobutyl}methanol] | <0.01 | <0.01 |
| OC(C1CCc2cccnc21)C1(c2ccccc2C(F)(F)F)CCC1 (stereo not drawn) [Example 197, (anti)-6,7-dihydro-5H-cyclopenta[b]pyridin-7-yl{1-[2-(trifluoromethyl)-phenyl]cyclobutyl}methanol] | 0.26 | <0.01 |
| OC(C1CCc2cccnc21)C1(c2ccccc2C(F)(F)F)CCC1 (stereo not drawn) [Example 198, (syn)-6,7-dihydro-5H-cyclopenta[b]pyridin-7-yl{1-[2-(trifluoromethyl)-phenyl]cyclobutyl}methanol] | 0.05 | <0.01 |
| O/N=C(\c1ccccn1)C1(c2ccc(Cl)c(Cl)c2)CCC1 [Example 230, (Z)-[1-(3,4-dichlorophenyl)cyclobutyl](pyridin-2-yl)methanone oxime] | 33 | 30 |
| OC(c1ccccn1)C1(C2CCOCC2)CCC1 (centres unmarked) [Example 239, pyridin-2-yl[1-(tetrahydro-2H-pyran-4-yl)cyclobutyl]methanol] | 57 | 0.072 |
| O=C1CC(c2cccc(C(F)(F)F)c2)([C@H](O)c2ccccn2)C1 [Example 241, 3-[(S)-hydroxy(pyridin-2-yl)methyl]-3-[3-(trifluoromethyl)phenyl]-cyclobutanone] | 66 | 59 |
| O=C1CC(c2cccc(C(F)(F)F)c2)([C@@H](O)c2ccccn2)C1 [Example 243, 3-[(R)-hydroxy(pyridin-2-yl)methyl]-3-[3-(trifluoromethyl)phenyl]-cyclobutanone] | 64 | 55 |
| OC(c1ccccn1)C1(C2(O)CCOC2)CCC1 (centres unmarked) [Example 246, 3-{1-[hydroxy(pyridin-2-yl)methyl]cyclobutyl}tetrahydrofuran-3-ol] | 71 | 59 |
| O=C1CC(c2cccc(OC(F)(F)F)c2)([C@H](O)c2ccccn2)C1 [Example 256, 3-[(S)-hydroxy(pyridin-2-yl)methyl]-3-[3-(trifluoromethoxy)phenyl]-cyclobutanone] | 44 | 55 |
| O=C1CC(c2cccc(OC(F)(F)F)c2)([C@@H](O)c2ccccn2)C1 [Example 257, 3-[(R)-hydroxy(pyridin-2-yl)methyl]-3-[3-(trifluoromethoxy)phenyl]-cyclobutanone] | 42 | 57 |
| O=C1CC(c2ccc(F)c(Cl)c2)([C@H](O)c2ccccn2)C1 [Example 268, 3-(3-chloro-4-fluorophenyl)-3-[(S)-hydroxy(pyridin-2-yl)methyl]-cyclobutanone] | 66 | 82 |
| OC(c1ccccn1)C1(C2CCOC2)CCC1 (centres unmarked) [Example 284, pyridin-2-yl[1-(tetrahydrofuran-3-yl)cyclobutyl]methanol] | >85 | 16 |
| COc1ccc(C(O)C2(c3ccc(Cl)c(Cl)c3)CCC2)nc1 (centres unmarked) [Example 287, [1-(3,4-dichlorophenyl)cyclobutyl](5-methoxypyridin-2-yl)methanol] | 15 | <0.01 |
| COc1ccnc(C(O)C2(c3ccc(Cl)c(Cl)c3)CCC2)c1 (centres unmarked) [Example 289, [1-(3,4-dichlorophenyl)cyclobutyl](4-methoxypyridin-2-yl)methanol] | 4.2 | <0.01 |
